Data from the supplement of paper PMC10883282.
± gives the standard deviation of the averaged measurements.

Tested on: G401
Experiment: relative viability vs DMSO control (72 h) (fraction); higher = more viable cells
Method in brief: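 Percent growth from ATPLite readings, averaged over up to triplicate wells, was used as relative viability. Sarcoma cell lines were seeded into 384-well plates for 80–90% confluence, dosed after 24 h, and kept 72 h at 37 °C, 5% CO2. Data were rescaled to a range where 1 is full and 0 is none.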

Row | Compound | relative viability (0.00017 µM) | relative viability (0.00051 µM) | relative viability (0.00152 µM) | relative viability (0.00457 µM) | relative viability (0.01372 µM) | relative viability (0.04115 µM) | relative viability (0.1235 µM) | relative viability (0.3704 µM) | relative viability (1.111 µM) | relative viability (3.333 µM) | relative viability (10 µM) | relative viability (2 pM) | relative viability (5 pM) | relative viability (15 pM) | relative viability (50 pM) | relative viability (0.00014 µM) | relative viability (0.00041 µM) | relative viability (0.0012 µM) | relative viability (0.0037 µM) | relative viability (0.011 µM) | relative viability (200 fM) | relative viability (600 fM)
1 | CC(C)NC(=O)C1CCC(n2c(NC(=O)c3ccc(F)cc3)nc3ccc(CN4CCC(C(C)(C)O)CC4)cc32)CC1 (stereo not drawn) [Belizatinib] | 1.01 ± 0.043 | 0.997 ± 0.054 | 1.01 ± 0.061 | 1 ± 0.064 | 1.02 ± 0.022 | 1.01 ± 0.015 | 0.974 ± 0.038 | 0.877 ± 0.026 | 0.606 ± 0.015 | 0.305 ± 0.027 | 0.154 ± 0.02 | – | – | – | – | – | – | – | – | – | – | –
2 | C=CC(=O)N1CCC[C@@H](n2nc(-c3ccc(Oc4ccccc4)cc3)c3c(N)ncnc32)C1 [Ibrutinib] | 1.03 ± 0.025 | 1.03 ± 0.095 | 1.03 ± 0.037 | 1.01 ± 0.0057 | 1.01 ± 0.025 | 1.05 ± 0.013 | 0.998 ± 0.072 | 0.995 ± 0.05 | 1.02 ± 0.013 | 0.922 ± 0.045 | 0.668 ± 0.049 | – | – | – | – | – | – | – | – | – | – | –
3 | O=C(Cc1ccc(-c2ccc(OCCN3CCOCC3)cc2)cn1)NCc1ccccc1 [KX2-391] | 1.05 ± 0.047 | 1.05 ± 0.025 | 1.02 ± 0.033 | 1.05 ± 0.036 | 1.022 ± 0.0094 | 0.944 ± 0.027 | 0.555 ± 0.019 | 0.446 ± 0.013 | 0.421 ± 0.013 | 0.38 ± 0.014 | 0.368 ± 0.0095 | – | – | – | – | – | – | – | – | – | – | –
4 | CC(=O)Nc1cccc(-n2c(=O)n(C3CC3)c(=O)c3c(Nc4ccc(I)cc4F)n(C)c(=O)c(C)c32)c1 [Trametinib] | 1.01 ± 0.054 | 1 ± 0.019 | 0.952 ± 0.018 | 0.906 ± 0.029 | 0.845 ± 0.032 | 0.765 ± 0.017 | 0.627 ± 0.011 | 0.38 ± 0.027 | 0.184 ± 0.0096 | 0.144 ± 0.014 | 0.12 ± 0.012 | – | – | – | – | – | – | – | – | – | – | –
5 | COc1cc2nccc(Oc3ccc(NC(=O)Nc4cc(C)on4)c(Cl)c3)c2cc1OC [Tivozanib] | 1.01 ± 0.025 | 1.03 ± 0.035 | 1.04 ± 0.025 | 1.04 ± 0.019 | 1.04 ± 0.023 | 0.98 ± 0.044 | 0.992 ± 0.056 | 0.99 ± 0.021 | 0.965 ± 0.034 | 0.713 ± 0.019 | 0.381 ± 0.0095 | – | – | – | – | – | – | – | – | – | – | –
6 | COc1cc2c(cc1O)CCN[C@]21CS[C@@H]2c3c(OC(C)=O)c(C)c4c(c3[C@H](COC1=O)N1[C@@H]2[C@H]2c3c(cc(C)c(OC)c3O)C[C@@H]([C@@H]1O)N2C)OCO4 [Trabectedin] | – | – | – | – | – | – | – | – | – | – | – | 1.03 ± 0.017 | 1.02 ± 0.025 | 0.993 ± 0.018 | 0.991 ± 0.014 | 0.832 ± 0.043 | 0.516 ± 0.024 | 0.0964 ± 0.077 | 0.126 ± 0.016 | 0.0862 ± 0.0056 | 1.05 ± 0.032 | 1.03 ± 0.04
7 | CNC(=O)c1cc(Oc2ccc(NC(=O)Nc3ccc(Cl)c(C(F)(F)F)c3)c(F)c2)ccn1 [Regorafenib] | 1.05 ± 0.058 | 1.06 ± 0.077 | 1.09 ± 0.071 | 1.07 ± 0.025 | 1.07 ± 0.032 | 1.07 ± 0.071 | 1.02 ± 0.058 | 0.888 ± 0.088 | 0.821 ± 0.056 | 0.609 ± 0.062 | 0.431 ± 0.029 | – | – | – | – | – | – | – | – | – | – | –
8 | C[C@@H]1CCN(C(=O)CC#N)C[C@@H]1N(C)c1ncnc2[nH]ccc12 [Tofacitinib] | 1.07 ± 0.026 | 1.044 ± 0.0027 | 1.06 ± 0.027 | 1.02 ± 0.015 | 1.05 ± 0.012 | 1.05 ± 0.026 | 1.03 ± 0.035 | 1.07 ± 0.048 | 1.04 ± 0.045 | 1.06 ± 0.056 | 1.06 ± 0.037 | – | – | – | – | – | – | – | – | – | – | –
9 | COc1cc2c(Oc3ccc4[nH]c(C)cc4c3F)ncnc2cc1OCCCN1CCCC1 [Cediranib] | 0.97 ± 0.055 | 1.03 ± 0.015 | 0.993 ± 0.031 | 0.981 ± 0.059 | 0.995 ± 0.029 | 1.01 ± 0.024 | 0.95 ± 0.024 | 0.828 ± 0.013 | 0.47 ± 0.019 | 0.273 ± 0.02 | 0.00627 ± 0.0033 | – | – | – | – | – | – | – | – | – | – | –
10 | CC[C@H](Nc1ncnc2[nH]cnc12)c1nc2cccc(F)c2c(=O)n1-c1ccccc1 [Idelalisib] | 1.06 ± 0.034 | 1.07 ± 0.036 | 1.06 ± 0.051 | 1.05 ± 0.017 | 1.02 ± 0.032 | 0.998 ± 0.036 | 0.987 ± 0.042 | 0.965 ± 0.021 | 0.946 ± 0.013 | 0.877 ± 0.045 | 0.795 ± 0.023 | – | – | – | – | – | – | – | – | – | – | –
11 | Cc1cc(Nc2ncnc3ccc(NC4=NC(C)(C)CO4)cc23)ccc1Oc1ccn2ncnc2c1 [Tucatinib] | 1.03 ± 0.042 | 1.04 ± 0.039 | 1.02 ± 0.04 | 1.02 ± 0.037 | 1.01 ± 0.037 | 0.985 ± 0.036 | 1.02 ± 0.026 | 1.01 ± 0.026 | 1.01 ± 0.035 | 0.984 ± 0.025 | 0.985 ± 0.031 | – | – | – | – | – | – | – | – | – | – | –
12 | Cn1cc(-c2cc3c(N4CCN(c5ncc([C@@](C)(N)c6ccc(F)cc6)cn5)CC4)ncnn3c2)cn1 [Avapritinib] | 0.895 ± 0.086 | 0.91 ± 0.036 | 0.907 ± 0.046 | 0.901 ± 0.023 | 0.922 ± 0.059 | 0.926 ± 0.074 | 0.918 ± 0.032 | 0.842 ± 0.033 | 0.701 ± 0.044 | 0.627 ± 0.012 | 0.506 ± 0.011 | – | – | – | – | – | – | – | – | – | – | –
13 | CC(C)(C)c1cc(NC(=O)Nc2ccc(-c3cn4c(n3)sc3cc(OCCN5CCOCC5)ccc34)cc2)no1 [Quizartinib] | 1.02 ± 0.04 | 1.01 ± 0.017 | 1.05 ± 0.048 | 1.06 ± 0.026 | 1.04 ± 0.039 | 0.984 ± 0.052 | 1 ± 0.013 | 0.926 ± 0.011 | 0.971 ± 0.021 | 0.945 ± 0.051 | 0.87 ± 0.023 | – | – | – | – | – | – | – | – | – | – | –
14 | O=C(Nc1cnn2ccc(N3CCC[C@@H]3c3cc(F)ccc3F)nc12)N1CC[C@H](O)C1 [Larotrectinib] | 1.032 ± 0.0041 | 1.03 ± 0.016 | 1.021 ± 0.0029 | 1.04 ± 0.033 | 1.04 ± 0.03 | 1.01 ± 0.019 | 1.02 ± 0.028 | 1 ± 0.014 | 1 ± 0.048 | 0.97 ± 0.025 | 0.916 ± 0.034 | – | – | – | – | – | – | – | – | – | – | –
15 | Cc1nc(-c2cn3c(n2)-c2ccc(-c4cnn(C(C)(C)C(N)=O)c4)cc2OCC3)n(C(C)C)n1 [Taselisib] | 0.995 ± 0.022 | 0.968 ± 0.045 | 0.969 ± 0.032 | 0.923 ± 0.011 | 0.866 ± 0.019 | 0.7976 ± 0.0064 | 0.68 ± 0.03 | 0.592 ± 0.027 | 0.499 ± 0.021 | 0.439 ± 0.019 | 0.347 ± 0.018 | – | – | – | – | – | – | – | – | – | – | –
16 | Cc1nc(NC(=O)N2CCC[C@H]2C(N)=O)sc1-c1ccnc(C(C)(C)C(F)(F)F)c1 [Alpelisib] | 1 ± 0.066 | 1.01 ± 0.04 | 0.993 ± 0.041 | 0.946 ± 0.075 | 0.939 ± 0.017 | 0.906 ± 0.079 | 0.864 ± 0.021 | 0.777 ± 0.036 | 0.697 ± 0.07 | 0.577 ± 0.053 | 0.504 ± 0.052 | – | – | – | – | – | – | – | – | – | – | –
17 | Cn1cnc2c(F)c(Nc3ccc(Br)cc3F)c(C(=O)NOCCO)cc21 [Binimetinib] | 1.01 ± 0.025 | 1.05 ± 0.019 | 1.03 ± 0.033 | 1.01 ± 0.011 | 0.983 ± 0.023 | 0.904 ± 0.0051 | 0.886 ± 0.029 | 0.859 ± 0.021 | 0.782 ± 0.02 | 0.716 ± 0.046 | 0.584 ± 0.038 | – | – | – | – | – | – | – | – | – | – | –
18 | CCc1cc2c(cc1N1CCC(N3CCOCC3)CC1)C(C)(C)c1[nH]c3cc(C#N)ccc3c1C2=O [Alectinib] | 0.947 ± 0.037 | 0.983 ± 0.023 | 0.977 ± 0.028 | 0.991 ± 0.037 | 0.981 ± 0.026 | 0.954 ± 0.029 | 1.01 ± 0.031 | 1.01 ± 0.056 | 1.03 ± 0.057 | 0.991 ± 0.039 | 0.894 ± 0.037 | – | – | – | – | – | – | – | – | – | – | –
